The values that follow come from patent US11717557B2, “Use of PRG4 as an anti-inflammatory agent” (Lubris LLC, priority 2015, dated 2023).

For one experiment, the target named is T1, CD44 (Homo sapiens, UniProt P16070).
T1 construct: purchased R & D systems
The experiment in a line: CD44 binding of sialidase-A / O-glycosidase digested rhPRG4, direct ELISA. To be noted: coating 30 μg/mL; digestion 16 hours at 37° C. The protocol:
rhPRG4 was digested using sialidase A (Prozyme, USA), O-glycosidase (New England Biolabs, USA) or a combination of sialidase A and O-glycosidase for 16 hours at 37° C. In the sialidase A digestion, 12 μL of the enzyme (1 U/200 μL) was added to rhPRG4 in a total reaction volume of 180 μL and a rhPRG4 final concentration of 300 μg/mL. In the O-glycosidase digestion, 4.8 μL of the enzyme (40 million units/mL) was added to rhPRG4 in a total reaction volume of 180 μL and a rhPRG4 final concentration of 300 μg/mL under non-denaturing conditions. In the sialidase-A and O-glycosidase digestion, the enzymes were used in volumes identical to the ones stated above and incubated with rhPRG4 in a total reaction volume and final rhPRG4 concentration as stated above. The effect of sialidase-A and O-glycosidase digestions on rhPRG4 apparent molecular weight was determined by SDS-PAGE using 4-12% Bis-Tris gel (NuPage, life technologies, USA). A total of 20 μL of rhPRG4 or enzyme-digested rhPRG4 was run under reducing conditions ([…] for 60 min) followed by staining using Gelcode Blue Stain (Thermo Scientific, USA). Binding of enzymatically digested rhPRG4 to CD44 was compared to undigested rhPRG4 using the direct ELISA approach described above and using an rhPRG4 coating concentration of 30 μg/mL. Data represents the average of 4 independent experiments, each with triplicate wells per group.
Background: ELISA stands for enzyme-linked immunosorbent assay.

For experiment [1], the target named is T2, CD44 IgG1Fc (Homo sapiens, UniProt P16070).
T2 construct: purchased R & D systems
Kind of experiment: Direct ELISA: binding of coated macromolecules to CD44-IgG1Fc versus IgG1Fc. To be noted: wells coated at 400 μg/mL; CD44-IgG1Fc or IgG1Fc 1 μg/mL; p<0.001 where significant. As for the experimental part:
High-binding microtiter plates (Corning, Sigma Aldrich, USA) were coated with rhPRG4 (Mr≅240 KDa), high molecular weight HA (HMW HA; Mr≈1,500 KDa) (R & D System, USA), medium molecular weight HA (MMW HA; Mr≈300 KDa) (R & D System) and vitronectin (Mr≅75 KDa) (Sigma Aldrich) at 400 μg/mL in PBS buffer (100 μL per well) overnight at 4° C. rhPRG4 is a full-length product produced by CHO-M cells (Lubris, Framingham, Mass., USA). Following washing with PBS+0.1% Tween 20, wells were blocked with 2% bovine serum albumin (BSA; 300 μL per well) for at least 2 hours at room temperature. CD44-IgG1Fc (R & D systems) or IgG1Fc (R & D systems), each at 1 μg/mL (100 μl per well), were added to the plate and incubated for 60 min at room temperature. Following washing with PBS+0.1% tween 20, anti-IgG1Fc-HRP (Sigma Aldrich) was added at 1:10,000 dilution (100 μL per well) and incubated for 60 min at room temp. Following washing with PBS+0.1% tween 20, the assay was developed using 1-step Turbo TMB ELISA reagent (ThermoScientific, USA) and absorbance was measured at 450 nm. The data represents an average of 4 independent assays, each with triplicate wells per group.

Experiment [2] has as its system NFκB nuclear translocation in RA-FLS. The experiment in a line: NFκB nuclear translocation after TNF-α stimulation of RA-FLS. Type of experiment: cell-based. To be noted: TNF-α 5 ng/mL; rhPRG4 200 μg/mL or MG 132 3 μM; 24 hours; p<0.001. As for the experimental part: RA-FLS (400,000 cells/well) were cultured and stimulated with TNF-α (5 ng/mL) and treated with rhPRG4 (200 μg/mL) or a commercially available NFκB translocation inhibitor MG 132 (3 μM; Tocris Bioscience) for 24 hours in serum free media. Cells were harvested and nuclear extraction was performed using a commercially available kit (Thermo scientific). Total protein was measured using a micro bicinchonic acid (BCA) kit (Thermo scientific) and 3 μg of nuclear extract of each experimental group were used. The p50 subunit of NFκB was detected in the nuclear extract using a commercially available NFκB DNA binding assay kit (Abcam). Data is presented as the number of fold change in NFκB nuclear levels compared to untreated control. To evaluate whether inhibition of NFκB translocation by rhPRG4 is CD44 dependent, the above experiment was repeated in the presence or absence of IM7 CD44 antibody (1:1,000 dilution). Data represents the average of 3 independent experiments with at least triplicate wells per treatment.

Experiment [3] has as its target T2, CD44 IgG1Fc. The experiment in a line: Competition between rhPRG4 and HA on binding to CD44, ELISA. To be noted: rhPRG4 5 μg/mL. The protocol: To evaluate the competition between rhPRG4 and either HMW HA or MMW HA on binding to CD44, microtiter plates were coated with either CD44 IgG1Fc or IgG1Fc at 1 μg/mL (100 μL per well) overnight at 4° C. Subsequently, wells were washed with PBS+0.1% tween 20 and wells were blocked using 2% BSA (300 μL per well) for at least 2 hours at room temperature. […] Following washing with PBS+0.1% tween 20, lubricin-specific monoclonal antibody (Mab 9G3) was added at 1:1,000 (100 μL per well) and incubated for 60 min at room temp. Following washing with PBS+0.1% tween 20, goat anti-mouse IgG-HRP (Thermo Scientific) at 1:1,000 dilution was added (100 μL per well) and incubated for 60 min at room temp. The assay was developed as described above. The absorbance values in the IgG1Fc wells were subtracted from the absorbance values in the CD44-IgG1Fc wells and the corrected absorbance values in the rhPRG4+HA groups were normalized to the absorbance values of the rhPRG4 group and data was expressed as percentage binding to CD44. The data represents an average of 4 independent assays, each with triplicate wells per group.

Experiment [4] has as its system Rheumatoid arthritis fibroblast-like synoviocytes (RA-FLS). The experiment in a line: Cytokine-induced RA-FLS proliferation (MTS). To be noted: 48 hours, p<0.05. It counts as cell-based. As for the experimental part: Rheumatoid arthritis fibroblast-like synoviocytes (RA-FLS; Cell Applications, USA) between 3rd and 6th passages were used to conduct these experiments. In sterile 96 well plates, RA-FLS (5,000 cells per well in 80 μL) were cultured in DMEM supplemented with 1% FBS and 1 mM pyruvate and stimulated with recombinant human interleukin-1 beta (IL-1β; R & D systems) at 20 ng/mL or tumor necrosis factor alpha (TNF-α; R & D systems) at 5 ng/mL for 48 hours at 37° C. in the absence or presence of rhPRG4 or HMW HA at a final concentration of 20, 40 or 80 μg/mL. The total volume in each well was 200 μL. Cell proliferation, an indication of inflammation, was determined using the CellTiter 96 AQueous one solution cell proliferation assay (MTS; Promega, USA) and the 490 nm absorbance was determined. Data is presented as the number of fold change in 490 nm absorbance compared to untreated control RA-FLS. The data represents the average of 3 independent experiments with at least triplicate wells per treatment. To evaluate the contribution of CD44 to the effect of rhPRG4 or HMW HA, RA-FLS were stimulated with IL-1β or TNF-α as described above. Treatment with rhPRG4 or HMW HA was conducted to a final concentration of 80 μg/mL in the absence or presence of IM7 (Abcam, USA), a CD44 neutralizing antibody that recognizes a conserved epitope across all CD44 isoforms (Samson et al., Exp Eye Res, 2014; 127C:14-19), at a final dilution of 1:200. The total volume in each well was 200 μl. Cell proliferation across the experimental groups was determined as described above and data is presented as the number of fold change in 490 nm absorbance compared to untreated control RA-FLS. The data represents the average of 3 independent experiments with at least triplicate wells per treatment.

For experiment [5], the system named is citrated whole human blood. The experiment in a line: LPS challenge, inflammatory cytokines in whole blood (Biochip Array). It counts as cell-based. To be noted: LPS 10 μg/mL, versus saline. From the text: Lipopolysaccharides (LPS) are found in the outer membrane of Gram-negative bacteria and elicit strong immune inflammatory responses in animals. The effect of LPS challenge on the production of inflammatory cytokines was studied in citrated whole human blood using Biochip Array technology to profile the generation of various cytokines and the modulation of their production. The generation of IL2, IL4, IL6, IL8, IL10, VEGF, IFNg, TNFa, IL1a, IL1b, MCP1 and EGF was studied in citrated whole blood samples supplemented with saline (1-10 ratio) and LPS at 10 μg/mL in samples incubated for 60 minutes at 37° C. These mixtures were centrifuged and the supernatant plasma was analyzed for the […] inflammatory biomarkers using a high sensitivity cytokine array on a Randox Invesitigator Biochip reader. These studies were run in duplicate and tabulated in the form of a table and a figure. As shown in FIGS. 8A-B, supplementation of lipopolysaccharide in a 1:10 dilution in whole blood results in an increase in production of the inflammatory cytokines IL-4, IL-6, IL-8, IL-10, VEGF, TNF-α, IL1-β, and MCP-1 under the specified conditions. No changes in IL2, IFNg, and IL1b were noted.

Residues, ends and D or L forms follow the SMILES beside them. *: point of attachment. Cbz = O=C(OCc1ccccc1)*

With “sialidase-A digested rhPRG4: rhPRG4 digested using sialidase A for 16 hours at 37° C.”, the “percentage binding to CD44 compared to untreated control (undigested rhPRG4)” value (from here on “percentage binding to CD44”) with CD44 was “significant increase”.

As to “vitronectin: vitronectin, Mr≅75 KDa (Sigma Aldrich), shares sequence homology with lubricin”, the “450 nm absorbance in the CD44-IgG1Fc group versus the IgG1Fc group” value with CD44 IgG1Fc [1] is “no significant difference”.

For `CC(C)C[C@@H](C=O)NC(=O)[C@H](CC(C)C)NC(=O)[C@H](CC(C)C)NC(=O)OCc1ccccc1` [MG132, reference compound] (Cbz-Leu-Leu-Leu-aldehyde), the “NFκB nuclear translocation compared to TNF-α-treated RA-FLS” value in experiment [2] was “significantly reduced”.

As for “O-glycosidase digested rhPRG4: rhPRG4 digested using O-glycosidase for 16 hours at 37° C.”, in the experiment with CD44, the “percentage binding to CD44” value is on record as “significant increase”.

In the case of hyaluronic acid [HMW HA], the “450 nm absorbance in the CD44-IgG1Fc group versus the IgG1Fc group” value on CD44 IgG1Fc [1] is “significantly higher”. The “reduction of rhPRG4 binding to CD44 by an excess of HA” value on CD44 IgG1Fc [3] is given as “approximately 50%”. Moreover, at CD44 IgG1Fc [3] (HA at 0.05, 0.25, 1, p<0.05), the “effect of HA on rhPRG4's binding to CD44” value was “significantly reduced”. The “RA-FLS proliferation with IL-1β stimulation” value in experiment [4] (IL-1β 20 ng/mL, treatment 40 and 80 μg/mL) is listed as “significantly suppressed”. Also, the “RA-FLS proliferation with TNF-α stimulation” value in experiment [4] (TNF-α 5 ng/mL, treatment 20, 40 and 80 μg/mL) is given as “did not result in suppressing”.

Turning to lipopolysaccharide, in experiment [5] (1:10 dilution in whole blood, 60 minutes at 37° C.), the “production of IL-4, IL-6, IL-8, IL-10, VEGF, TNF-α, IL1-β and MCP-1” value is recorded as “increase”. Besides, the “IL2, IFNg and IL1b” value in experiment [5] (60 minutes at 37° C.) was “No changes”. In experiment [5] (60 minutes), the “percent changes in IL6, IL8, VEGF and TNFa” value is “pronounced increase”.

In the case of “sialidase-A and O-glycosidase-digested rhPRG4: rhPRG4 digested using a combination of sialidase A and O-glycosidase”, the “percentage binding to CD44” value with CD44 is on record as “significantly higher”.
